Where “and” joins values, the source holds several entries; their conditions need not be identical. Equal values may be shown once. Inconclusive results and toxic doses are left out. The calls were made as follows: active = survival T/C of 150% or more; inactive = T/C below 125% in these data.
System: P388 leukemia ip, CD2F1 mice, survival T/C
Test: NCI In Vivo Anticancer Drug Screen. Data for tumor model P388 Leukemia (intraperitoneal) in CD2F1 (CDF1) mice
Conditions: endpoint: median survival time, higher = longer survival
Summary of the method: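 Mice carrying the transplanted tumor received test compound or vehicle. Survival was recorded in each group, and the value is the treated-group measurement divided by that of the vehicle-treated control group.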

[1] = dose: 50.0 mg/kg/injection, schedule: Q01DX009 (ip), vehicle: saline
[2] = dose: 100.0 mg/kg/injection, schedule: Q01DX009 (ip), vehicle: saline
[3] = dose: 100.0 mg/kg/injection, schedule: Q04DX002 (ip), vehicle: saline
[4] = dose: 200.0 mg/kg/injection, schedule: Q04DX002 (ip), vehicle: saline
[5] = dose: 400.0 mg/kg/injection, schedule: Q04DX002 (ip), vehicle: saline
[6] = dose: 50.0 mg/kg/injection, schedule: Q01DX005 (ip), vehicle: Klucel (hydroxypropylcellulose) (HPC)
[7] = dose: 100.0 mg/kg/injection, schedule: Q01DX005 (ip), vehicle: Klucel (hydroxypropylcellulose) (HPC)
[8] = dose: 100.0 mg/kg/injection, schedule: Q04DX003 (ip), vehicle: saline with Tween-80
[9] = dose: 200.0 mg/kg/injection, schedule: Q04DX003 (ip), vehicle: saline with Tween-80
[10] = dose: 400.0 mg/kg/injection, schedule: Q04DX003 (ip), vehicle: saline with Tween-80
[11] = dose: 100.0 mg/kg/injection, schedule: Q01DX009 (ip), vehicle: saline with Tween-80
[12] = dose: 200.0 mg/kg/injection, schedule: Q01DX009 (ip), vehicle: saline with Tween-80
[13] = dose: 50.0 mg/kg/injection, schedule: Q01DX009 (ip), vehicle: saline with Tween-80
[14] = dose: 200.0 mg/kg/injection, schedule: Q01DX009 (ip), vehicle: saline
[15] = dose: 50.0 mg/kg/injection, schedule: Q01DX005 (ip), vehicle: saline with Tween-80
[16] = dose: 100.0 mg/kg/injection, schedule: Q01DX005 (ip), vehicle: saline with Tween-80
[17] = dose: 200.0 mg/kg/injection, schedule: Q01DX005 (ip), vehicle: saline with Tween-80
[18] = dose: 60.0 mg/kg/injection, schedule: Q01DX005 (ip), vehicle: saline with Tween-80
[19] = dose: 120.0 mg/kg/injection, schedule: Q01DX005 (ip), vehicle: saline with Tween-80
[20] = dose: 240.0 mg/kg/injection, schedule: Q01DX005 (ip), vehicle: saline with Tween-80

Measured: T/C

COc1ccc(-c2nn(-c3ccccc3)c(-c3ccc(OC)cc3)c2N=Nc2ccc(S(=O)(=O)Nc3nnc(C)s3)cc2)cc1
inactive: dose: 100.0 mg/kg/injection, schedule: Q01DX001 (ip), vehicle: saline with Tween-80 100 % of control | dose: 200.0 mg/kg/injection, schedule: Q01DX001 (ip), vehicle: saline with Tween-80 89 % of control | dose: 400.0 mg/kg/injection, schedule: Q01DX001 (ip), vehicle: saline with Tween-80 93 % of control

OC1CC2CCc3[nH]c4ccccc4c3CCN(C1)C2 (stereo unspecified)
inactive: dose: 5.5 mg/kg/injection, schedule: Q01DX005 (ip), vehicle: Klucel (hydroxypropylcellulose) (HPC) 91 % of control | dose: 11.0 mg/kg/injection, schedule: Q01DX005 (ip), vehicle: Klucel (hydroxypropylcellulose) (HPC) 96 % of control | dose: 22.0 mg/kg/injection, schedule: Q01DX005 (ip), vehicle: Klucel (hydroxypropylcellulose) (HPC) 100 % of control | dose: 44.0 mg/kg/injection, schedule: Q01DX005 (ip), vehicle: Klucel (hydroxypropylcellulose) (HPC) 100 % of control

CC(=O)Nc1ccc(S(=O)(=O)NC(C)=O)cc1
inactive: dose: 12.5 mg/kg/injection, schedule: Q01DX009 (ip), vehicle: saline 100 % of control | dose: 25.0 mg/kg/injection, schedule: Q01DX009 (ip), vehicle: saline 98 % of control | [1] 108 % of control | [2] 100 % of control

CC1(C)OC(c2ccccc2)=Nc2ccccc21
inactive: [3] 104 % of control | [4] 103 % of control | [5] 99 % of control

Cn1ncc(N)nc1=S
inactive: dose: 50.0 mg/kg/injection, schedule: Q01DX005 (ip), vehicle: suspension in saline 101 % of control | dose: 100.0 mg/kg/injection, schedule: Q01DX005 (ip), vehicle: suspension in saline 97 % of control | dose: 200.0 mg/kg/injection, schedule: Q01DX005 (ip), vehicle: suspension in saline 105 % of control

C(=N\NC1=NCCN1)/c1ccncc1
inactive: dose: 50.0 mg/kg/injection, schedule: Q01DX005 (ip), vehicle: saline 100 % of control | dose: 100.0 mg/kg/injection, schedule: Q01DX005 (ip), vehicle: saline 94 % of control

CCN(CC)CCOC(=O)c1c[nH]c2ccccc12
inactive: dose: 6.25 mg/kg/injection, schedule: Q01DX005 (ip), vehicle: Klucel (hydroxypropylcellulose) (HPC) 100 % of control | dose: 12.5 mg/kg/injection, schedule: Q01DX005 (ip), vehicle: Klucel (hydroxypropylcellulose) (HPC) 105 % of control | dose: 25.0 mg/kg/injection, schedule: Q01DX005 (ip), vehicle: Klucel (hydroxypropylcellulose) (HPC) 105 % of control | [6] 98 % of control and 95 % of control | [7] 100 % of control

O=C1CSCC(=O)OCCOCCSCCOCCO1
inactive: dose: 100.0 mg/kg/injection, schedule: Q04DX003 (ip), vehicle: suspension in saline 92 % of control | dose: 200.0 mg/kg/injection, schedule: Q04DX003 (ip), vehicle: suspension in saline 99 % of control | dose: 400.0 mg/kg/injection, schedule: Q04DX003 (ip), vehicle: suspension in saline 101 % of control

C=C(C(=O)OC)C1C=CC2OC(C)(C)OCC2O1 (stereo unspecified)
inactive: dose: 60.0 mg/kg/injection, schedule: Q01DX005 (ip), vehicle: saline 113 % of control | dose: 120.0 mg/kg/injection, schedule: Q01DX005 (ip), vehicle: saline 106 % of control | dose: 240.0 mg/kg/injection, schedule: Q01DX005 (ip), vehicle: saline 109 % of control

CC1c2ccccc2NC(=O)N1N1CCOCC1 (stereo unspecified)
inactive: [6] 96 % of control | [7] 93 % of control | dose: 200.0 mg/kg/injection, schedule: Q01DX005 (ip), vehicle: Klucel (hydroxypropylcellulose) (HPC) 97 % of control

CC(C)c1ccc(C(=O)CCCCl)cc1
inactive: [8] 109 % of control | [9] 100 % of control | [10] 104 % of control

COC(=O)C(O)c1ccc2c(c1)OCO2 (stereo unspecified)
inactive: [11] 90 % of control | [12] 90 % of control | dose: 400.0 mg/kg/injection, schedule: Q01DX009 (ip), vehicle: saline with Tween-80 104 % of control

O=C1OC2CS(=O)CC2O1 (stereo unspecified)
inactive: [13] 104 % of control | [1] 102 % of control | [11] 101 % of control | [2] 101 % of control | [12] 95 % of control | [14] 99 % of control

N#C/C(=N\NC(=O)c1cccnc1)c1ccc(Cl)cc1
inactive: [15] 92 % of control | [16] 92 % of control | [17] 101 % of control

CC1(C)OC2OC(COC(=O)c3ccccc3)C(N3OC4C=CC3CC4)C2O1 (stereo unspecified)
inactive: dose: 100.0 mg/kg/injection, schedule: Q04DX002 (ip), vehicle: Klucel (hydroxypropylcellulose) (HPC) 103 % of control | dose: 200.0 mg/kg/injection, schedule: Q04DX002 (ip), vehicle: Klucel (hydroxypropylcellulose) (HPC) 103 % of control | dose: 400.0 mg/kg/injection, schedule: Q04DX002 (ip), vehicle: Klucel (hydroxypropylcellulose) (HPC) 102 % of control

COC(=O)C1=CN2CCc3c([nH]c4ccccc34)C2(C)C2CN3CCc4c([nH]c5ccccc45)C3CC12 (stereo unspecified)
inactive: dose: 2.25 mg/kg/injection, schedule: Q01DX009 (ip), vehicle: Klucel (hydroxypropylcellulose) (HPC) 98 % of control | dose: 4.5 mg/kg/injection, schedule: Q01DX009 (ip), vehicle: Klucel (hydroxypropylcellulose) (HPC) 106 % of control | dose: 9.0 mg/kg/injection, schedule: Q01DX009 (ip), vehicle: Klucel (hydroxypropylcellulose) (HPC) 113 % of control | dose: 18.0 mg/kg/injection, schedule: Q01DX009 (ip), vehicle: Klucel (hydroxypropylcellulose) (HPC) 92 % of control | dose: 36.0 mg/kg/injection, schedule: Q01DX009 (ip), vehicle: Klucel (hydroxypropylcellulose) (HPC) 98 % of control

CSc1nc(N)c(NS(=O)(=O)c2cccc(N)c2)c(=O)[nH]1
inactive: [18] 100 % of control | [19] 99 % of control | [20] 99 % of control

O=c1c(CS(=O)(=O)c2ccccc2)c(-c2ccccc2)c1=O
inactive: dose: 100.0 mg/kg/injection, schedule: Q04DX002 (ip), vehicle: saline with Tween-80 104 % of control | dose: 200.0 mg/kg/injection, schedule: Q04DX002 (ip), vehicle: saline with Tween-80 104 % of control | dose: 400.0 mg/kg/injection, schedule: Q04DX002 (ip), vehicle: saline with Tween-80 97 % of control

Cc1ccccc1C1(Br)C(=O)c2ccccc2C1=O
inactive: [3] 101 % of control | [4] 101 % of control | [5] 102 % of control

O=[N+]([O-])c1ccc(/C=C/S(=O)(=O)/C=C\c2ccccc2)cc1
inactive: [15] 101 % of control | [16] 97 % of control | [17] 88 % of control

CN(C)CCC=C1c2ccccc2C(C)(C)c2ccccc21
inactive: [6] 98 % of control | [7] 97 % of control

CS(=O)(=O)OC1C(O)C(n2cnc3c(N)ncnc32)C(O)C(OS(C)(=O)=O)C1OS(C)(=O)=O (stereo unspecified)
inactive: [18] 98 % of control | [19] 95 % of control | [20] 96 % of control

Cc1ccc2[nH]c3nc4cc(C)c(C)cc4nc3c2c1
inactive: dose: 6.25 mg/kg/injection, schedule: Q01DX005 (ip), vehicle: saline with Tween-80 93 % of control | dose: 12.5 mg/kg/injection, schedule: Q01DX005 (ip), vehicle: saline with Tween-80 93 % of control | dose: 25.0 mg/kg/injection, schedule: Q01DX005 (ip), vehicle: saline with Tween-80 87 % of control | [15] 96 % of control | [16] 105 % of control | [17] 108 % of control

Clc1cc(Cl)cc(N=Cc2cccs2)c1
inactive: [1] 100 % of control | [2] 100 % of control | [14] 98 % of control

NC(=O)c1ccccc1OC(=O)NCCO
inactive: [13] 106 % of control | [11] 95 % of control | [12] 100 % of control

CCN(CC)c1ccc2cc(-c3nc4ccccc4s3)c(=O)oc2c1
inactive: dose: 100.0 mg/kg/injection, schedule: Q04DX003 (ip), vehicle: Klucel (hydroxypropylcellulose) (HPC) 92 % of control | dose: 200.0 mg/kg/injection, schedule: Q04DX003 (ip), vehicle: Klucel (hydroxypropylcellulose) (HPC) 92 % of control | dose: 400.0 mg/kg/injection, schedule: Q04DX003 (ip), vehicle: Klucel (hydroxypropylcellulose) (HPC) 104 % of control

CC(C)C1OC(c2ccc(Cl)cc2)OCC1(C)C (stereo unspecified)
inactive: [8] 114 % of control | [9] 110 % of control | [10] 97 % of control

— PubChem BioAssay AID330 (DTP/NCI, 2004)
